#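 Protocol summary: plate cells (96-well), add compound at 5 concentrations, incubate 48 h, interpolate endpoints linearly. TGI denotes the concentration required for complete inhibition of growth.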
# Assays:
# Assay in all cases: inhibition of tumour cell growth, NCI panel, 48 h
# [1] = test system: 786-0 renal
# [2] = test system: A549 NSCLC
# [3] = test system: ACHN renal
# [4] = test system: BT-549 breast
# [5] = test system: CCRF-CEM leukemia
# [6] = test system: COLO 205 colon
# [7] = test system: DU-145 prostate
# [8] = test system: HCC-2998 colon
# [9] = test system: HCT-116 colon
# [10] = test system: HCT-15 colon
# [11] = test system: HL-60(TB) leukemia
# [12] = test system: HOP-62 NSCLC
# [13] = test system: HS 578T breast
# [14] = test system: HT29 colon
# [15] = test system: IGROV1 ovarian
# [16] = test system: K-562 leukemia
# [17] = test system: KM12 colon
# [18] = test system: M14 melanoma
# [19] = test system: MALME-3M melanoma
# [20] = test system: MCF7 breast
# [21] = test system: MDA-MB-231 breast
# [22] = test system: MDA-MB-435
# [23] = test system: MDA-N
# [24] = test system: MOLT-4 leukemia
# [25] = test system: NCI-H226 lung
# [26] = test system: NCI-H23 lung
# [27] = test system: NCI-H460 lung
# [28] = test system: NCI-H522 lung
# [29] = test system: NCI/ADR-RES ovarian
# [30] = test system: OVCAR-3 ovarian
# [31] = test system: OVCAR-4 ovarian
# [32] = test system: OVCAR-5 ovarian
# [33] = test system: PC-3 prostate
# [34] = test system: RPMI-8226 leukemia
# [35] = test system: RXF 393 renal
# [36] = test system: SF-268 CNS
# [37] = test system: SF-295 CNS
# [38] = test system: SF-539 CNS
# [39] = test system: SK-MEL-28 melanoma
# [40] = test system: SK-MEL-5 melanoma
# [41] = test system: SK-OV-3 ovarian
# [42] = test system: SN12C renal
# [43] = test system: SNB-19 CNS
# [44] = test system: SNB-75 CNS
# [45] = test system: SR leukemia
# [46] = test system: SW-620 colon
# [47] = test system: T-47D breast
# [48] = test system: TK-10 renal
# [49] = test system: U251 CNS
# [50] = test system: UACC-257 melanoma
# [51] = test system: UACC-62 melanoma
# [52] = test system: A498 renal
# [53] = test system: CAKI-1 renal
# [54] = test system: EKVX NSCLC
# [55] = test system: HOP-92 NSCLC
# [56] = test system: LOX IMVI melanoma
# [57] = test system: OVCAR-8 ovarian
# [58] = test system: SK-MEL-2 melanoma
# [59] = test system: UO-31 renal
compound,measurement,setting,value
CCCc1nc2c(n1CC)C(=O)c1ccccc1C2=O,TGI,[1],> 100 µM
same,TGI,[2],> 100 µM
same,TGI,[3],> 100 µM
same,TGI,[4],> 100 µM
same,TGI,[5],> 100 µM
same,TGI,[6],> 100 µM
same,TGI,[7],> 100 µM
same,TGI,[8],> 100 µM
same,TGI,[9],> 100 µM
same,TGI,[10],98 µM
same,TGI,[11],> 100 µM
same,TGI,[12],> 100 µM
same,TGI,[13],> 100 µM
same,TGI,[14],53.3 µM
same,TGI,[15],> 100 µM
same,TGI,[16],> 100 µM
same,TGI,[17],> 100 µM
same,TGI,[18],94 µM
same,TGI,[19],60.5 µM
same,TGI,[20],> 100 µM
same,TGI,[21],> 100 µM
same,TGI,[22],32.3 µM
same,TGI,[23],49.4 µM
same,TGI,[24],> 100 µM
same,TGI,[25],> 100 µM
same,TGI,[26],> 100 µM
same,TGI,[27],> 100 µM
same,TGI,[28],> 100 µM
same,TGI,[29],78.7 µM
same,TGI,[30],> 100 µM
same,TGI,[31],> 100 µM
same,TGI,[32],> 100 µM
same,TGI,[33],> 100 µM
same,TGI,[34],> 100 µM
same,TGI,[35],69.1 µM
same,TGI,[36],> 100 µM
same,TGI,[37],> 100 µM
same,TGI,[38],> 100 µM
same,TGI,[39],> 100 µM
same,TGI,[40],88.7 µM
same,TGI,[41],> 100 µM
same,TGI,[42],> 100 µM
same,TGI,[43],> 100 µM
same,TGI,[44],> 100 µM
same,TGI,[45],> 100 µM
same,TGI,[46],> 100 µM
same,TGI,[47],> 100 µM
same,TGI,[48],> 100 µM
same,TGI,[49],> 100 µM
same,TGI,[50],45.6 µM
same,TGI,[51],> 100 µM
CCOc1ccc(NC(=O)C(=O)Nn2c(N)nnc2N)cc1,TGI,[1],> 100 µM
same,TGI,[52],> 100 µM
same,TGI,[2],> 100 µM
same,TGI,[3],> 100 µM
same,TGI,[4],> 100 µM
same,TGI,[53],> 100 µM
same,TGI,[5],> 100 µM
same,TGI,[54],> 100 µM
same,TGI,[8],> 100 µM
same,TGI,[9],> 100 µM
same,TGI,[10],> 100 µM
same,TGI,[11],> 100 µM
same,TGI,[12],> 100 µM
same,TGI,[55],> 100 µM
same,TGI,[13],> 100 µM
same,TGI,[14],> 100 µM
same,TGI,[15],> 100 µM
same,TGI,[16],> 100 µM
same,TGI,[17],> 100 µM
same,TGI,[56],> 100 µM
same,TGI,[18],> 100 µM
same,TGI,[19],> 100 µM
same,TGI,[20],> 100 µM
same,TGI,[21],> 100 µM
same,TGI,[22],> 100 µM
same,TGI,[23],> 100 µM
same,TGI,[24],> 100 µM
same,TGI,[25],> 100 µM
same,TGI,[26],> 100 µM
same,TGI,[27],> 100 µM
same,TGI,[28],> 100 µM
same,TGI,[29],> 100 µM
same,TGI,[30],> 100 µM
same,TGI,[31],> 100 µM
same,TGI,[32],> 100 µM
same,TGI,[57],> 100 µM
same,TGI,[33],> 100 µM
same,TGI,[34],> 100 µM
same,TGI,[35],> 100 µM
same,TGI,[36],> 100 µM
same,TGI,[37],> 100 µM
same,TGI,[38],> 100 µM
same,TGI,[58],> 100 µM
same,TGI,[39],> 100 µM
same,TGI,[40],> 100 µM
same,TGI,[41],> 100 µM
same,TGI,[42],> 100 µM
same,TGI,[44],> 100 µM
same,TGI,[45],> 100 µM
same,TGI,[46],> 100 µM
same,TGI,[47],> 100 µM
same,TGI,[48],> 100 µM
same,TGI,[49],> 100 µM
same,TGI,[50],> 100 µM
same,TGI,[51],> 100 µM
same,TGI,[59],> 100 µM

# From PubChem BioAssay (NCI)
